Assay results taken from PMC10136189, “A Tale of 12 Tails: Katanin Severing Activity Affected by Carboxy-Terminal Tail Sequences” (Biomolecules, 2023).

Tests used:
[1] = biological target: T1, human GFP-katanin p60 (Homo sapiens, UniProt O75449); assay: GFP-katanin binding to microtubules (TIRF intensity) in the severing assay; conditions: inhibitor 0-2 μM; GFP intensity normalized to same day control without inhibitor; pH 7.7, 2 mM ATP
T1 construct: made in house; host or cells: Escherichia coli BL21(DE3)
T1 sequence (O75449 whole entry): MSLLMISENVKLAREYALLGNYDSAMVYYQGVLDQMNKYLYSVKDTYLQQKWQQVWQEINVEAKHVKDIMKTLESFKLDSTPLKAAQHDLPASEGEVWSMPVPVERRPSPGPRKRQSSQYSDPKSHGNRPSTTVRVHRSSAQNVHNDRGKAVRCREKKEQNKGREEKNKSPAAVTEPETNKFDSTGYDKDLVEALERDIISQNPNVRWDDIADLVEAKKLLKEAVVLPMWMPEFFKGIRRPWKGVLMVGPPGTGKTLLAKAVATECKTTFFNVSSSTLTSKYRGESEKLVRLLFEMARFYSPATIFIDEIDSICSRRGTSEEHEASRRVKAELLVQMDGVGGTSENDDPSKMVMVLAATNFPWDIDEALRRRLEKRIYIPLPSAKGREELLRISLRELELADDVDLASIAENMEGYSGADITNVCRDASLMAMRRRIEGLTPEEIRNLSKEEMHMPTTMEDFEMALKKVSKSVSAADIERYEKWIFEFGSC
Protocol: (§1) In this work, we use the in vitro microtubule severing assay to quantitatively characterize the microtubule binding and severing ability of human GFP-katanin p60 in the presence of different CTT sequences. First, we ensure that our human GFP-katanin p60 can robustly and reproducibly sever microtubules and completely remove all polymer within 3–5 min (Figure 1A). As each katanin prep has slightly different activity and the activity can fluctuate (Supplemental Figure S1), we perform control experiments each day to determine the optimal katanin concentration needed and to serve as a control without added inhibitors (Figure 1A). For simplicity we use “katanin” to refer to human GFP-katanin p60 for the remainder of this manuscript.
(§2) Flow chambers with 10 μL channels were made by adhering double-stick tape (3M, St. Paul, MN, USA) to a microscope slide and attaching a silanized coverslip cross-wise. Silanized coverslips were UVO sterilized, cleaned with rinses of acetone, ethanol, 0.1 M KOH, and ddH20 before coating with PlusOne Repel-Silane 2% dimethyldichlorosilane (Cytiva, Marlborough, MA, USA). Samples were made in the chambers by flowing through the chamber using a pipette and filter paper to wick from the other side. For severing assays, we first flowed 5% MAB1864 tubulin YL ½ antibody (Merck-Millipore, Billerica, MA, USA) in PEM-100 for three minutes to provide a binding site for microtubules. Second, we flowed 5% (w/v) Pluronic F127 to act as a polymer brush to block the surface, allowing three minutes for incubation. Next, we flowed 10% rhodamine-labeled microtubules diluted 1:100 (final tubulin concentration 454 nM) and allowed them to adhere for three minutes. During the incubation, an aliquot of katanin was rapidly defrosted from −80 °C and diluted to assay concentration. The chamber was then washed with Katanin Activity Buffer (20 mM HEPES pH 7.7, 10% glycerol, 2 mM MgCl2, 2 mM ATP, 0.025 mg/mL BSA, 0.05% F127, 10 mM dithiothreitol (DTT), 15 mg/mL glucose, 0.15 mg/mL catalase, […]) to remove excess unadhered microtubules. The chamber was then situated on the microscope to find a good field for the assay before flowing Katanin Activity Buffer with GFP-katanin and CTT tails at their respective concentrations.
Imaging was performed using epifluorescence and total internal reflection (TIRF) with a home-built laser illumination system around a Nikon Ti-E microscope (Nikon USA, Melville, NY, USA). Epifluorescence was used to image rhodamine microtubules in the red channel, and TIRF was used to image GFP-katanin illuminating with a 488 nm laser. Images were collected with a 60x, oil-coupled TIRF objective with a numerical aperture of 1.49 (Nikon USA, Melville, NY, USA). The two-color imaging was performed using shuttering the red channel (400–800 ms exposure) and green channel (70–200 ms exposure) sequentially. The 5 min movies recorded with 3 s intervals using Nikon Elements software (Nikon USA, Melville, NY, USA) driving an Ixon EMCCD camera (Andor, Belfast, Northern Ireland) with a final pixel size of 160 nm. […]
(§3) Each of the 64 treatments were run two to three times for replication and for obtaining 15–20 MTs for analysis. […] Next, the concentration needed to sever microtubules within 2–3 min is determined in the presence of ATP. Once the optimal katanin concentration is determined, the assay is repeated in the absence of ATP to again test the imaging conditions in the presence of a GFP-katanin binding to microtubules. […]

[2] = biological target: T1, human GFP-katanin p60; assay: in vitro microtubule severing assay (loss of microtubule polymer); format: biochemical; conditions: for inhibition of katanin severing of microtubules (loss of polymer) / relative potency as inhibitor of katanin binding and severing (comparison in words): inhibitor 0-2 μM; for inhibition of katanin severing of microtubules (loss of polymer): taxol-stabilized rhodamine microtubules, Katanin Activity Buffer pH 7.7, 2 mM ATP, 5 min movies; for relative potency as inhibitor of katanin binding and severing (comparison in words): compared with other CTTs or whole tubulin
Protocol: as §1, §2
Imaging was performed using epifluorescence and total internal reflection (TIRF) with a home-built laser illumination system around a Nikon Ti-E microscope (Nikon USA, Melville, NY, USA). Epifluorescence was used to image rhodamine microtubules in the red channel, and TIRF was used to image GFP-katanin illuminating with a 488 nm laser. Images were collected with a 60x, oil-coupled TIRF objective with a numerical aperture of 1.49 (Nikon USA, Melville, NY, USA). The two-color imaging was performed using shuttering the red channel (400–800 ms exposure) and green channel (70–200 ms exposure) sequentially. The 5 min movies recorded with 3 s intervals using Nikon Elements software (Nikon USA, Melville, NY, USA) driving an Ixon EMCCD camera (Andor, Belfast, Northern Ireland) with a final pixel size of 160 nm. Movie data were saved as a 16-bit time series as nd2 files with metadata. Movies were started recording before the GFP-katanin mixture was flowed while imaging. After the 5 min, a new field of view was imaged to ensure that the loss of microtubule polymer was universal in the chamber and not due to imaging conditions.
as §3, with “analysis. Four control chambers were run each day to ensure chamber activity was caused by the respective treatment conditions.” for “analysis.”

| inhibition of GFP-katanin binding to microtubules [1] | inhibition of katanin severing of microtubules (loss of polymer) [2] | predicted ability to inhibit katanin severing ([2]; prediction from hydrophobicity and C-terminal phenylalanine, not tested) | Sequence | relative potency as inhibitor of katanin binding and severing (comparison in words) ([2]; listed as beta5 CTT) | relative potency as inhibitor of katanin binding and severing (comparison in words) ([2]; listed as beta5 tubulin CTT) |
| --- | --- | --- | --- | --- | --- |
| can inhibit | can inhibit |  | A T A DDDDDDDDDD [D10] |  |  |
| can inhibit | can inhibit |  | A T A EEEEEEEEEE [E10] |  |  |

Second part, the sequence before the results:

| Sequence | inhibition of GFP-katanin binding to microtubules [1] | inhibition of katanin severing of microtubules (loss of polymer) [2] | predicted ability to inhibit katanin severing ([2]; prediction from hydrophobicity and C-terminal phenylalanine, not tested) | relative potency as inhibitor of katanin binding and severing (comparison in words) ([2]; listed as beta5 CTT) | relative potency as inhibitor of katanin binding and severing (comparison in words) ([2]; listed as beta5 tubulin CTT) |
| --- | --- | --- | --- | --- | --- |
| A T A DE Q G E F EEEE G EDE A [Beta2 (TUBB2A)] | more beta2a CTT is needed to inhibit | more beta2a CTT is needed to inhibit |  |  |  |
| A T A EEEED F G EE A EEE A [Beta5 (TUNN/TUBB5)] |  | severing is inhibited |  | most potent inhibitor of the CTTs we tested | better at inhibiting katanin than whole tubulin |
| A T A EEEED F G EE A EEE Y [Beta5-A+Y, artificial beta5 CTT with the last amino acid (A) replaced with a tyrosine] | does not affect katanin binding | far less potent as a katanin inhibitor |  |  |  |
| A T A EEEED M Y EDDDEE S E A Q G P K [Beta3 (TUBB3)] | little inhibition of GFP-katanin binding | cannot inhibit katanin severing |  |  |  |
| DSFEEENEGEEF [alpha8, human alpha8 tubulin tail, only alpha tail with a C-terminal F; hydrophobicity calculated, not tested] |  |  | unable to inhibit katanin severing |  |  |
